The record followed here is ChEMBL document CHEMBL5233274, “Current Landscape and Future Perspective of Oxazolidinone Scaffolds Containing Antibacterial Drugs” (J Med Chem, 2021).

Values after ≈ are worked out from the molar mass of the structure shown.

One assay deals with Escherichia coli. In words: Antimicrobial activity against Escherichia coli assessed as inhibition zone at 200 ug/ml incubated for 24 hrs by disk diffusion method. The class given is functional. The settings on record: read-out: IZ.
The next assay deals with Bacillus subtilis. In words: Antimicrobial activity against Bacillus subtilis assessed as inhibition zone at 200 ug/ml incubated for 24 hrs by disk diffusion method. The class given is functional. The settings on record: read-out: IZ. (In general: In agar diffusion tests the substance spreads into inoculated agar from a disc or well.)
The subject of a further assay is Fusarium oxysporum. Briefly: Antimicrobial activity against Fusarium oxysporum assessed as inhibition zone at 200 ug/ml incubated for 24 hrs by disk diffusion method. The settings on record: read-out: IZ. The class given is functional.
In a further assay the test system is MCF7. Briefly: Cytotoxicity against human MCF7 cells assessed as reduction in cell viability by tryphan blue exclusion dye method. The class given is functional, cell-based.
A further assay relates to HT-29. Briefly: Cytotoxicity against human HT-29 cells assessed as reduction in cell viability by tryphan blue exclusion dye method. The class given is functional, cell-based.

Take `O=C1NC2(CO1)O/C(=C\c1ccc(Cl)cc1)C(=O)N2CCCNc1ccnc2cc(Cl)ccc12` (stereo not given): the zone of inhibition at 200 µg/mL in the assay with Escherichia coli was found to be 13 mm; in the assay on Bacillus subtilis, 14 mm; in the assay with Fusarium oxysporum, 10 mm. In addition, the values for the IC50 with MCF7 and with HT-29 were 16.1 µg/mL (≈ 32.2 µM) and 32.4 µg/mL (≈ 64.9 µM), respectively.

By IC50 is commonly meant the midpoint of a concentration-inhibition curve.
